Measured values published in patent publication US10786521B2, “Methods and compositions for treatment of COPD diseases” (Shanghai KE Pharmaceutical Co., LTD, priority 2014, dated 2020).

What was measured:
[1] = tested on: airway smooth muscle (bronchial rings); test: Relaxation of evoked isometric force of bronchial rings (wire myograph); type: cell-based, mice
Description: Briefly, the entire respiratory tree was rapidly removed and immersed in Krebs-Henseleit buffer (118.1 mM NaCl, 4.7 mM KCl, 1.2 mM MgSO4, 2.5 mM CaCl2, 1.0 mM NaH2PO4, 25 mM NaHCO3 and 11.1 mM glucose, pH 7.4). Bronchial rings, 2 mm in length, were isolated from pulmonary bronchi using a dissection microscope. Then the bronchial segments were mounted in a small-vessel wire myograph chamber (Danish Myo Technology, Aarhus, Denmark) by threading on two steel wires (40 μm in diameter) secured to two supports. One support was attached to a force transducer for measurements of isometric force development, and the other was attached to a micrometer controlling ring circumference. The preparation was kept in the chamber, immersed in 5 ml of Krebs-Henseleit solution, bubbled with 5% CO2 and 95% O2 and maintained at 37° C. The initial isometric tension of bronchial ring was set to 0 mN prior to equilibration for 20 min. The bronchial ring was then stretched in order to keep the force at 5 mN followed by an additional equilibration for 20 min. The isometric forces produced by bronchial ring was recorded with a data acquisition and analysis program (Danish Myo Technology, Aarhus, Denmark).
The robust relaxation effect and low risk of toxicity of KE on airway smooth muscle indicates its promising prospects for development. To identify the active ingredients of KE, the KE was divided into three parts including EtOAc phase, n-BuOH phase and water phase using EtOAc and n-BuOH sequential extraction. Upon the airway smooth muscle rings reached a relative steady contraction state evoked by MCh, accumulated volume of these three phases was added to assess the relaxation capacity. […] On the other hand, 1 μL of EtOAc phase just relaxed the rings to 90%.
Their dose-responsive effect on relaxation of airway smooth muscle was measured. When the force evoked by acetylcholine reached a relatively steady state, kudinosides were added to the bath in cumulative concentrations (0.1 μM, 0.3 μM, 1 μM, 3 μM, 10 μM, 30 μM). […] When the concentration of kudinoside D increased to 10 μM, about 50% of the force was relaxed. Strikingly, upon treatment with 30 μM of kudinoside D, more than 80% of the force was relaxed (FIG. 5B). Similarly, 30 μM of kudinoside A also led to 80% inhibition of evoked force. Note that the relaxation effect of kudinosides was completely reversible, because the relaxed muscles restored response to MCh after washing off.

[2] = tested on: asthmatic airway constriction in acute asthma mouse model; test: Airway resistance (Rrs, FlexiVent) in OVA-induced, methacholine-challenged asthma mice; type: in vivo, C57BL/6 mice
Description: Asthma mice were established as reported previously. Briefly, six to eight-week-old female C57BL/6 mice were carried out by intraperitoneal injection of 100 μg ovalbumin and 4 mg Imject Alum (ThermoFisher Scientific) in total volume of 0.2 mL on days 0 and 14. These mice were then challenged with 1.5%-2% aerosolized ovalbumin for 1 h on days 24, 25 and 26. The efficacy of drugs was evaluated by measuring airway resistance in these mice 24 h after the last challenge.
(§1) The airway resistance was measured through an invasive method as described in previous reports. In brief, the mice were anesthetized with 240 mg/kg Avertin and the trachea was cannulated with an 18-gauge metal needle. Mechanical ventilation (FlexiVent; SCIREQ Inc., Montreal, Canada) was applied at a frequency of 150 breaths per minute, a tidal volume of 10 ml/kg, and positive end-expiratory pressure of 2.5 cm H2O. Prior to methacholine challenge, deep inflation was applied followed by administration of aerosolized PBS to obtain stabilization of airway resistance (Rrs, cmH2O·s/mL). The Rrs after PBS was considered to be the baseline. Then mice were challenged with sequential concentrations of methacholine with a dose of 2.0, 4.0, 8.0, 16, 32 and 64 mg/mL by an ultrasonic nebulizer until reaching bronchoconstrictive phase that was four to five folds greater than baseline. Three minutes after the last dose of methacholine inhalation, the reagents were delivered by the same ultrasonic nebulizer. The Rrs measurements were performed every 30 s throughout the experiments. The negative control for these studies was PBS, because all the solvents for reagents used here were PBS. As a positive control, albuterol (3 μg; Sigma), the most widely used β-agonist as an effective bronchodilator for asthma therapy, was used.
as §1, with “Acute asthma model mice were established as reported previously. Briefly, six to eight-week-old female C57BL/6 mice were carried out by intraperitoneal injection of 100 μg ovalbumin and 4 mg Imject Alum (ThermoFisher Scientific) in total volume of 0.2 mL on days 0 and 14. These mice were then challenged with 1.5%-2% aerosolized ovalbumin for 1 h on days 24, 25 and 26. The efficacy of drugs by measuring airway resistance in these mice 24 h was evaluated after the last challenge. The airway” for “The airway”

C[C@@H]1O[C@@H](O[C@H]2[C@H](O[C@H]3CC[C@@]4(C)C(CC[C@]5(C)C4C=CC4=C6[C@]7(CC[C@](C)(OC7=O)[C@@]6(C)O)CC[C@]45C)C3(C)C)OC[C@H](O)[C@@H]2O[C@@H]2O[C@H](CO)[C@@H](O)[C@H](O)[C@H]2O)[C@H](O)[C@H](O)[C@H]1O (some centres unmarked) [Kudinoside D]
force relaxed at 10 μM ([1]; force evoked by acetylcholine, cumulative concentrations, 10 μM): about 50% | force relaxed / inhibition of evoked force at 30 μM ([1]; force evoked by acetylcholine, cumulative concentrations, 30 μM): more than 80% | relaxation of evoked force of airway smooth muscle / bronchial rings ([1]; in vitro, concentration not given): significantly relaxed bronchial rings in a dose-dependent manner | reduction of airway resistance, 0.03 μg ([2]; 0.03 μg inhaled): slight reduction | airway resistance reduced to, at 1 minute after inhalation, 0.03 μg ([2]; 0.03 μg inhaled, 1 minute): 69.65±5.87% | reduction of airway resistance, 0.3 μg ([2]; 0.3 μg inhaled): significant reduction of airway resistance | airway resistance reduced to, at 1 minute after inhalation, 0.3 μg ([2]; 0.3 μg inhaled, 1 minute): 67.79±6.77% | reduction of airway resistance at 3 minutes after inhalation compared with 3 μg albuterol, 0.3 μg ([2]; 0.3 μg inhaled, 3 minutes): more reduction of airway resistance than that of 3 μg of albuterol | reduction of airway resistance, 3 μg ([2]; 3 μg inhaled): significant reduction of airway resistance | airway resistance reduced to, at 1 minute after inhalation, 3 μg ([2]; 3 μg inhaled, 1 minute): 45.81±6.87% | reduction of airway resistance at 3 minutes after inhalation compared with 3 μg albuterol, 3 μg ([2]; 3 μg inhaled, 3 minutes): more reduction of airway resistance than that of 3 μg of albuterol
